Data as given in patent US20100247503A1, “METHOD FOR OBTAINING A SOLID COMPOSITION WITH RHODOTORULA MINUTA, WHICH IS EFFECTIVE FOR THE BIOLOGICAL CONTROL OF ANTHRACNOSE, AND RESULTING COMPOSITION” (priority 2006, published 2010).

Columns and labels:
Format in all cases: in vivo
[1] = test system: Colletotrichum gloeosporioides; assay: Field tests with solid dry compositions, pre-harvest application, severity of anthracnose on mango fruit; settings: mango cv. Kent, mix 10^6+10^4 UFC/mL, Benomyl 0.5 g/L
Text: (§1) Application of treatments in the field. To verify field effectiveness we used an eight-year old commercial mango orchard cv. Kent, located in El Rosario, Sinaloa, Mexico. We selected the trees homogeneously to distribute them for each treatment (three trees per treatment). In each treatment there was a monthly application (five in total), using a backpack pump sprinkler operated at 400 pounds of pressure. We started during flowering (February) until the harvest (June or July), spraying suspensions of fresh or dried cells (previously hydrated), produced in semi-industrial fermenters. We sprayed 7 L of cell suspension on each selected mango tree, until all the foliage was wet. As a control treatment, we sprayed 7 L of irrigation water.
(§2) Quantifying the severity of anthracnose. For each treatment, 100 mango fruits were harvested at physiological maturity (Báez et al., 1993), and were stored under simulated marketing conditions at 20° C. and 85% relative humidity. We evaluated the severity of the disease after a minimum of 15 days of storage, using the presence of symptoms as indicator of the disease (anthracnose) in the fruit. […]
(§3) Statistical analysis. The study of the severity of the disease in mango fruits was analyzed using a completely randomized block design. […] The difference between treatments was determined by the Tukey test (p=0.05). […]

[2] = test system: Colletotrichum gloeosporioides; assay: Field tests with liquid compositions, pre-harvest application, severity of anthracnose on mango fruit; settings: mango cv. Kent, five monthly pre-harvest sprays, fruit stored 15 days at 20° C., 85% RH, R. minuta 10^8, B. subtilis 10^6, mix 10^6+10^4 UFC/mL, Benomyl 0.5 g/L
Text: as §1, §2, §3

[3] = test system: mango fruit (Mangifera indica) cv. Kent; assay: Assessing the quality of the fruit (weight loss, pH, titratable acidity, total soluble solids) during storage; settings: 85% RH
Description: Assessing the quality of the fruit. Weight loss was assessed every third day by difference in weight with respect to the initial weight of the fruit, expressed as a percentage (Diaz-Pérez, 1998). The pH, titratable acidity (TA) and total soluble solids (TSS) were quantified according to the methodology proposed by the AOAC (1998) at 0, 6 and 12 days of storage. To determine the pH and acidity we used a Mettler automatic titrator (model DL-21) and the results were expressed in units of pH and percentage of citric acid, respectively. Total soluble solids were determined with a Leica Abbe Mark II type refractometer, temperature-compensated and previously calibrated with pure water. The results were expressed in Brix degrees (°Brix). For quality parameters, a fruit was selected as an experimental unit and five replications were used.
Statistical analysis. The study of the severity of the disease in mango fruits was analyzed using a completely randomized block design. Data from the evaluations of each treatment were subjected to unilateral variance analysis by Friedman ranges (p<0.05) using the SAS statistical system (SAS, 1998). The difference between treatments was determined by the Tukey test (p=0.05). For differences in the analysis of variance (ANOVA) of quality variables, the mediums were separated by Tukey multiple comparison test with a probability of error of 5%, using the Minitab statistical program version 13.1.
The same compositions presented in table 2 were used to study the effect of the application of biological control agents, subject of this invention, on the quality of mango fruit cv. Kent.

Q: With `CCCCNC(=O)n1c(NC(=O)OC)nc2ccccc21` [Benomyl] as the compound, how does the “% severity” value [1] read?
A: 25.0 b %

Q: What about the “% severity” value ([1]; listed as chemical treatment) of the same compound?
A: 36.2%

Q: And the “% of severity after 15 days of storage” value [2]?
A: 41.7 b %

Q: What about the “% of severity after 15 days of storage” value ([2]; listed as chemical treatment) of the same compound?
A: 41.7%

Q: What about the “Weight loss (%)” value ([3]; day 3 of storage at 20° C.) of the same compound?
A: 0.9 a %

Q: What about the “Weight loss (%)” value ([3]; day 6 of storage at 20° C.) of the same compound?
A: 1.6 a %

Q: And the “Weight loss (%)” value ([3]; day 9 of storage at 20° C.)?
A: 2.4 ab %

Q: What about the “Weight loss (%)” value ([3]; day 12 of storage at 20° C.) of the same compound?
A: 3.4 ab %

Q: And the “Weight loss (%)” value ([3]; day 15 of storage at 20° C.)?
A: 4.3 a %

Q: What about the “Weight loss (%)” value ([3]; day 15 of storage at 20° C., listed as chemical treatment) of the same compound?
A: 4.3%
